We go through 6 compounds from ChEMBL document CHEMBL1143282, “Synthesis and evaluation of photoreactive probes to elucidate iodide efflux in thyrocytes” (Bioorg Med Chem Lett, 2009).

Active and inactive are the calls of the source. The rule behind the calls is not given here.

The nature of data set [1]: Chemical stability assessed as photodecomposition-associated half life in MeCN using UV lamp. The class given is physicochemical. Conditions: MeCN solution irradiated with UV lamp.
Data set [2] relates to FRTL-5. In words: Iodide sequestering activity in rat FRTL5 cells assessed as enhancement of intracellular iodide entrapment after 120 mins in dark by scintillation counting. The class given is functional, cell-based. To be noted: for EC50: FRTL-5, 2 h.
Data set [3] relates to FRTL-5. In words: Iodide sequestering activity in rat FRTL5 cells assessed as enhancement of intracellular iodide entrapment at 50 uM after 120 mins in dark by scintillation counting relative to sodium perchlorate. Format: functional.
Data set [4] relates to FRTL-5. The data set is described as follows: Iodide sequestering activity in rat FRTL5 cells assessed as enhancement of intracellular iodide entrapment at 0.1 to 200 uM after 120 mins in dark by scintillation counting. Format: functional, cell-based.
Data set [5] concerns FRTL-5. The data set is described as follows: Iodide sequestering activity in rat FRTL5 cells assessed as enhancement of intracellular iodide entrapment at 200 uM after 120 mins in dark by scintillation counting relative to sodium perchlorate. The class given is functional.
In data set [6] the test system is FRTL-5. The data set is described as follows: Iodide sequestering activity in rat FRTL5 cells assessed as enhancement of intracellular iodide entrapment at 20 uM after 120 mins in dark by scintillation counting relative to sodium perchlorate. The class given is functional.
The nature of data set [7]: Chemical stability in MeCN/H2O at 4mCi/mL. The class given is physicochemical.

For `O=C(c1ccccc1)c1ccc(C2=CSC3=NCCN23)cc1`, the half-life in data set [1] was 12 min. Moreover, in data set [2], the Activity result was “Dose-dependent effect” and the EC50 was 50 µM. Moreover, the “fold change (FC)” value in data set [3] is 1.8. In data set [4], the outcome was Active. For the same compound, in data set [5], the “fold change (FC)” value was 2.5.
On to `N#[N+]c1ccc(-c2ccc(C3=CSC4=NCCN34)cc2)cc1`, for which, in data set [4], the result was inactive.
As to `[N-]=[N+]=Nc1ccc(-c2ccc(C3=CSC4=NCCN34)cc2)cc1`, the result in data set [4] was inactive.
Still for that read-out and setting: next, `FC(F)(F)C1(c2ccc(C3=CSC4=NCCN34)cc2)N=N1`: “inactive”.
As for `C1=C(c2ccc(-c3ccccc3)cc2)N2CCN=C2S1`, the EC50 in data set [2] is 20 µM. Also, the “fold change (FC)” value in data set [6] was 2.5.
In turn, `[3H]C1=C(c2ccc(C(=O)c3ccccc3)cc2)N2CCN=C2S1` had a Stability in data set [7] of 6 months.

The EC50 is the concentration giving half of the maximal effect.
